≈ marks a conversion by molar mass, not a printed value.
Tests used:
[1] = tested on: Staphylococcus aureus MRQR (methicillin resistant and quinolone resistant); experiment: MIC, agar-dilution, Staphylococci; assay type: cell-based; details: inoculum 10^4 CFU/spot, 37° C., 24 hours
Method: (§1) The following results were obtained on a standard in-vitro test system. The activity is described in terms of the minimum inhibitory concentration (MIC) determined by the agar-dilution technique with an inoculum size of 10^4 CFU/spot. Typically, compounds are active in the range 0.01 to 256 μg/ml.
(§2) Staphylococci were tested on agar, using an inoculum of 10^4 CFU/spot and an incubation temperature of 37° C. for 24 hours—standard test conditions for the expression of methicillin resistance.

[2] = tested on: Staphylococcus aureus MSQS (methicillin sensitive and quinolone sensitive); experiment: MIC, agar-dilution, Staphylococci; assay type: cell-based; details: inoculum 10^4 CFU/spot, 37° C., 24 hours
Method: as §1, §2

Streptococcus pneumoniae = experiment: MIC, agar-dilution on agar with 5% defibrinated horse blood, Streptococci; assay type: cell-based; details: 10^4 CFU/spot, 37° C., 5% carbon dioxide, 48 hours
Method: as §1
(§3) Streptococci and enterococci were tested on agar supplemented with 5% defibrinated horse blood, an inoculum of 10^4 CFU/spot and an incubation temperature of 37° C. in an atmosphere of 5% carbon dioxide for 48 hours—blood is required for the growth of some of the test organisms. Fastidious Gram negative organisms were tested in Mueller-Hinton broth, supplemented with hemin and NAD, grown aerobically for 24 hours at 37° C., and with an innoculum of 5×10^4 CFU/well.

Streptococcus pyogenes = experiment: as above; assay type: cell-based; details: 10^4 CFU/spot, 37° C., 5% carbon dioxide, 48 hours
Method: as §1, §3

Haemophilus influenzae = experiment: MIC, fastidious Gram negative organisms in Mueller-Hinton broth; assay type: cell-based; details: Mueller-Hinton broth with hemin and NAD, aerobic, 24 hours, 37° C., 5×10^4 CFU/well
Method: as §1, §3

Moraxella catarrhalis = experiment: as above; assay type: cell-based; details: Mueller-Hinton broth with hemin and NAD, aerobic, 24 hours, 37° C., 5×10^4 CFU/well
Method: as §1, §3

Structure (SMILES) | MIC [1] | MIC [2] | MIC (Streptococcus pneumoniae) | MIC (Streptococcus pyogenes) | MIC (Haemophilus influenzae) | MIC (Moraxella catarrhalis) | melting point
CC(=O)NC[C@H]1CN(c2ccc(-c3ccc(N4C[C@H](CNC(C)=O)OC4=O)cc3F)c(F)c2)C(=O)O1 [Example 1, (5S,5′S)-N-(3-{4′-[5-(Acetylamino-methyl)-2-oxo-oxazolidin-3-yl]-2,2′-difluoro-biphenyl-4-yl}-2-oxo-oxazolidin-5-ylmethyl)-acetamide] | 0.5 µg/mL (≈ 0.995 µM) | 0.25 µg/mL (≈ 0.498 µM) | 0.06 µg/mL (≈ 0.119 µM) | 0.13 µg/mL (≈ 0.259 µM) | 2 µg/mL (≈ 3.98 µM) | 0.5 µg/mL (≈ 0.995 µM) | –
CC(=O)NC[C@H]1CN(c2ccc(-c3ccc(N4C[C@H](CNC(C)=O)OC4=O)s3)s2)C(=O)O1 [Example 62, N-{[(5S)-3-(5′-{5-[(Acetylamino)methyl]-2-oxo-1,3-oxazolidin-3-yl}-2,2′-bithien-5-yl)-2-oxo-1,3-oxazolidin-5-yl]methyl}acetamide] | – | – | – | – | – | – | 257 to 260 °C
